{"source": "patent US20230332232A1", "about": "“COMPOSITIONS AND METHODS FOR DIAGNOSING AND TREATING A DYSTONIA” (Duke University, priority 2020, published 2023)", "key": {"[1]": {"tested_on": "wild-type (WT) murine embryonic fibroblasts (MEFs)", "assay": "microRNA-seq of EVs from WT MEFs treated with drug, compared with non-treated WT MEFs", "assay_type": "cell-based, mouse", "conditions": "for ISRIB Direction Same as dE?: EVs of WT MEFs", "experimental": "In addition to proteomic analysis, total RNA-seq and microRNA-seq was performed on RNA isolated in parallel from the EV samples of Cohort 2. As with the proteomic analysis, one biological replicate was prepared from 3 distinct biological clonal cell lines for each genotype. Here, EVs were isolated from conditioned cell culture media by 18 hour ultracentrifugation at 100,000 g. RNA was extracted using the Qiagen miRNeasy Micro Kit (Cat. No. 217084) according to the manufacturer's protocol. Two RNA fractions were extracted from each sample, one enriched in coding and non-coding RNA species>200 nt (“Total RNA” fraction) and one enriched for small RNAs<200 nt (“miRNA” fraction).\nRNA samples were then submitted to the Duke Sequencing and Genomic Technologies shared resource for further quality control and sequencing. Samples were assessed for concentration and integrity by Qubit and Fragment Analyzer. The miRNA fractions were 4.16 ng/μL-47.57 ng/μL and total RNA fractions were 3.8 ng/μL-43.6 ng/μL. The small RNA library was prepared using the QIAseq miRNA Library Kit (Cat No./ID: 331505) and sequenced on the Illumina NextSeq 500 High-Output platform with 75 bp single-reads. The total RNA library was prepared using the Illumina TruSeq Stranded Total RNA-seq Kit with Ribozero Gold ribosomal RNA reduction and sequenced on the Illumina NovaSeq 6000 S1 platform with 100 bp paired-end reads. Sequencer lane pooling and read depth are attached in the Excel data summary (See “RNA QC” Tab).\nData processing and analysis were performed in collaboration with the Duke Genomic Analysis and Bioinformatics shared resource. RNA-seq data was processed using the TrimGalore toolkit (http://www.bioinformatics.babraham.ac.uk/projects/trim_galore), which employs Cutadapt(Martin M. (2011) EMBnet.journal. 17(1):10-12) to trim low quality bases and Illumina sequencing adapters from the 3′ end of the reads. Only reads that were 20 nt or longer after trimming were kept for further analysis. Reads were mapped to the mouse genome and transcriptome (Kersey P J, et al. (2012) Nucleic Acids Res. 40(Database issue):D91-97) using the STAR RNA-seq alignment tool (Dobin A, et al. (2013). Bioinformatics. 29(1):15-21). If the reads mapped to a single genomic location, then they were kept for subsequent analysis. Gene counts were compiled using the HTSeq tool (http://www-huber.embl.de/users/anders/HTSeq/). Only genes that had at least 10 reads in any given library were used in subsequent analysis. Normalization and differential expression was carried out using the DESeq26 Bioconductor (Huber W, et al. (2015) Nat Methods. 12(2):115-121) package with the R statistical programming environment (www.r-project.org). The false discovery rate was calculated to control for multiple hypothesis testing and p-values were adjusted to an FDR of 5%.\n694 miRNAs were initially examined with respect to QC, genotype, RTV effects, and ISRIB effects. This subset was the “Full miRNA” subset. FIG. 9A and FIG. 9B show the RTV effect on EV composition in DYT1 cells compared to WT cells for 279 miRNAs, respectively."}, "[2]": {"tested_on": "WT TorsinA", "conditions": "cited from earlier work"}, "[3]": {"tested_on": "DYT1 knockin (Tor1a^delGAG/+) murine embryonic fibroblasts (MEFs)", "assay": "Untargeted LC/MS/MS proteomics of EVs from DYT1 MEFs exposed 24 hours to drug, compared with untreated DYT1 (Het) MEFs", "assay_type": "cell-based, mouse"}, "[4]": {"conditions": "ISRIB-treated vs non-treated WT MEF EVs"}}, "data": [{"smiles": "O=C(COc1ccc(Cl)cc1)NC1CCC(NC(=O)COc2ccc(Cl)cc2)CC1", "note": "(stereo not shown) [ISRIB]", "values": [{"measurement": "mmu-miR-147-5p: ISRIB Direction Same as dE?", "setting": "[1]; [4]", "result": "yes"}, {"measurement": "mmu-miR-147-5p: ISRIBvWT Z Score", "setting": "[1]; [4]", "result": "−0.31"}, {"measurement": "mmu-miR-181a-1-3p: ISRIBvWT Z Score", "setting": "[1]; [4]", "result": "−0.20"}, {"measurement": "mmu-miR-331-5p: ISRIBvWT Z Score", "setting": "[1]; [4]", "result": 0.56}, {"measurement": "mmu-miR-668-3p: ISRIBvWT Z Score", "setting": "[1]; [4]", "result": "−1.49"}, {"measurement": "mmu-miR-1930-5p: ISRIB Direction Same as dE?", "setting": "[1]; [4]", "result": "yes"}, {"measurement": "mmu-miR-1930-5p: ISRIBvWT Z Score", "setting": "[1]; [4]", "result": 0.71}, {"measurement": "mmu-miR-1943-5p: ISRIBvWT Z Score", "setting": "[1]; [4]", "result": "−1.07"}, {"measurement": "mmu-miR-1955-5p: ISRIBvWT Z Score", "setting": "[1]; [4]", "result": 1.21}, {"measurement": "mmu-miR-3072-5p: ISRIBvWT Z Score", "setting": "[1]; [4]", "result": 0.00}, {"measurement": "mmu-miR-3076-3p: ISRIBvWT Z Score", "setting": "[1]; [4]", "result": 0.25}, {"measurement": "mmu-miR-3088-3p: ISRIBvWT Z Score", "setting": "[1]; [4]", "result": "−0.45"}, {"measurement": "mmu-miR-6936-3p: ISRIBvWT Z Score", "setting": "[1]; [4]", "result": "−0.38"}, {"measurement": "mmu-miR-7224-3p: ISRIB Direction Same as dE?", "setting": "[1]; [4]", "result": "yes"}, {"measurement": "mmu-miR-7224-3p: ISRIBvWT Z Score", "setting": "[1]; [4]", "result": "−1.07"}, {"measurement": "mmu-miR-467d-3p: ISRIB Direction Same as dE?", "setting": "[1]; [4]", "result": "yes"}, {"measurement": "mmu-miR-467d-3p: ISRIBvWT Z Score", "setting": "[1]; [4]", "result": "−0.71"}, {"measurement": "ISRIB Direction Same as dE?", "setting": "[1]; mmu-let-7f-5p", "result": "yes"}, {"measurement": "ISRIB Direction Same as dE?", "setting": "[1]; mmu-let-7i-5p", "result": "yes"}, {"measurement": "ISRIB Direction Same as dE?", "setting": "[1]; mmu-miR-30e-5p", "result": "yes"}, {"measurement": "ISRIB Direction Same as dE?", "setting": "[1]; mmu-miR-19b-3p", "result": "yes"}, {"measurement": "ISRIB Direction Same as dE?", "setting": "[1]; mmu-miR-22-3p", "result": "yes"}, {"measurement": "ISRIB Direction Same as dE?", "setting": "[1]; mmu-miR-26b-Sp", "result": "yes"}, {"measurement": "ISRIB Direction Same as dE?", "setting": "[1]; mmu-miR-30a-5p", "result": "yes"}, {"measurement": "ISRIB Direction Same as dE?", "setting": "[1]; mmu-miR-30c-5p", "result": "yes"}, {"measurement": "ISRIB Direction Same as dE?", "setting": "[1]; mmu-miR-31-5p", "result": "yes"}, {"measurement": "ISRIB Direction Same as dE?", "setting": "[1]; mmu-miR-34a-5p", "result": "yes"}, {"measurement": "ISRIB Direction Same as dE?", "setting": "[1]; mmu-miR-34c-5p", "result": "yes"}, {"measurement": "ISRIB Direction Same as dE?", "setting": "[1]; mmu-miR-93-5p", "result": "yes"}, {"measurement": "ISRIB Direction Same as dE?", "setting": "[1]; mmu-miR-96-5p", "result": "yes"}, {"measurement": "ISRIB Direction Same as dE?", "setting": "[1]; mmu-miR-103-3p", "result": "yes"}, {"measurement": "ISRIB Direction Same as dE?", "setting": "[1]; mmu-miR-125b-1-3p", "result": "yes"}, {"measurement": "ISRIB Direction Same as dE?", "setting": "[1]; mmu-miR-130b-3p", "result": "yes"}, {"measurement": "ISRIB Direction Same as dE?", "setting": "[1]; mmu-miR-135a-5p", "result": "yes"}, {"measurement": "ISRIB Direction Same as dE?", "setting": "[1]; mmu-miR-140-3p", "result": "yes"}, {"measurement": "ISRIB Direction Same as dE?", "setting": "[1]; mmu-miR-148a-3p", "result": "yes"}, {"measurement": "ISRIB Direction Same as dE?", "setting": "[1]; mmu-miR-182-5p", "result": "yes"}, {"measurement": "ISRIB Direction Same as dE?", "setting": "[1]; mmu-miR-183-5p", "result": "yes"}, {"measurement": "ISRIB Direction Same as dE?", "setting": "[1]; mmu-miR-187-3p", "result": "yes"}, {"measurement": "ISRIB Direction Same as dE?", "setting": "[1]; mmu-miR-192-5p", "result": "yes"}, {"measurement": "ISRIB Direction Same as dE?", "setting": "[1]; mmu-miR-199a-3p", "result": "yes"}, {"measurement": "ISRIB Direction Same as dE?", "setting": "[1]; mmu-miR-199b-3p", "result": "yes"}, {"measurement": "ISRIB Direction Same as dE?", "setting": "[1]; mmu-miR-296-3p", "result": "yes"}, {"measurement": "ISRIB Direction Same as dE?", "setting": "[1]; mmu-miR-298-5p", "result": "yes"}, {"measurement": "ISRIB Direction Same as dE?", "setting": "[1]; mmu-miR-344-3p", "result": "yes"}, {"measurement": "ISRIB Direction Same as dE?", "setting": "[1]; mmu-miR-362-3p", "result": "yes"}, {"measurement": "ISRIB Direction Same as dE?", "setting": "[1]; mmu-miR-362-5p", "result": "yes"}, {"measurement": "ISRIB Direction Same as dE?", "setting": "[1]; mmu-miR-532-5p", "result": "yes"}, {"measurement": "ISRIB Direction Same as dE?", "setting": "[1]; mmu-miR-542-5p", "result": "yes"}, {"measurement": "ISRIB Direction Same as dE?", "setting": "[1]; mmu-miR-671-5p", "result": "yes"}, {"measurement": "ISRIB Direction Same as dE?", "setting": "[1]; mmu-miR-1291", "result": "yes"}, {"measurement": "ISRIB Direction Same as dE?", "setting": "[1]; mmu-miR-3535", "result": "yes"}, {"measurement": "ISRIB Direction Same as dE?", "setting": "[1]; mmu-miR-5121", "result": "yes"}, {"measurement": "ISRIB Direction Same as dE?", "setting": "[1]; mmu-miR-30h-5p", "result": "yes"}, {"measurement": "ISRIB Direction Same as dE?", "setting": "[1]; mmu-miR-344d-3p", "result": "yes"}, {"measurement": "subcellular localization of WT TorsinA", "setting": "[2]", "result": "alter the normal subcellular localization of WT TorsinA in a way that was more similar to the distribution of dE TorsinA in DYT1"}]}, {"smiles": "O=C(/C=C/c1ccccc1)NC(NC(=S)Nc1cccc2cccnc12)C(Cl)(Cl)Cl", "note": "(stereo not shown) [SAL, Salubrinal]", "values": [{"measurement": "SAL Direction Opposite ISRIB?", "setting": "[3]; EV protein: ATP- binding cassette sub-family [?] member 1", "result": "yes"}, {"measurement": "SAL Direction Opposite ISRIB?", "setting": "[3]; EV protein: Nerine arginine-rich splicing factor [?]", "result": "yes"}]}]}
